Experimental data from patent US20250051344A1, “BIFUNCTIONAL SELECTIVE DEGRADERS OF SMARCA2 AND THERAPEUTIC USES THEREOF” (Nurix Therapeutics, Inc., priority 2023, published 2025).

Columns and labels:
[1] = molecular target: T1, SMARCA2 (Homo sapiens, UniProt P51531); assay: SMARCA2 Cellular Degradation Assay (Western blot analysis on Jess platform); type: cell-based; settings: for DC50 / Dmax: cellular degradation; for Fold Selectivity SMARCA4/2: ratio DC50 SMARCA4 / DC50 SMARCA2
T1 construct: endogenous in cells
Procedure, shortened: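 SMARCA2 remaining is given as percent of vehicle control, using actin-normalized, background-corrected electropherogram areas. Measurement was by Jess capillary immunoassay (anti-SMARCA2 with anti-β-actin) on 5 μg protein from RIPA/SDS lysates of tumor-derived cells.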

[2] = molecular target: T2, SMARCA4 (Homo sapiens, UniProt P51532); assay: Cellular degradation assay, SMARCA4 (Table 1); type: cell-based
T2 construct: endogenous in cells
T2 sequence (P51532 whole entry, species assumed): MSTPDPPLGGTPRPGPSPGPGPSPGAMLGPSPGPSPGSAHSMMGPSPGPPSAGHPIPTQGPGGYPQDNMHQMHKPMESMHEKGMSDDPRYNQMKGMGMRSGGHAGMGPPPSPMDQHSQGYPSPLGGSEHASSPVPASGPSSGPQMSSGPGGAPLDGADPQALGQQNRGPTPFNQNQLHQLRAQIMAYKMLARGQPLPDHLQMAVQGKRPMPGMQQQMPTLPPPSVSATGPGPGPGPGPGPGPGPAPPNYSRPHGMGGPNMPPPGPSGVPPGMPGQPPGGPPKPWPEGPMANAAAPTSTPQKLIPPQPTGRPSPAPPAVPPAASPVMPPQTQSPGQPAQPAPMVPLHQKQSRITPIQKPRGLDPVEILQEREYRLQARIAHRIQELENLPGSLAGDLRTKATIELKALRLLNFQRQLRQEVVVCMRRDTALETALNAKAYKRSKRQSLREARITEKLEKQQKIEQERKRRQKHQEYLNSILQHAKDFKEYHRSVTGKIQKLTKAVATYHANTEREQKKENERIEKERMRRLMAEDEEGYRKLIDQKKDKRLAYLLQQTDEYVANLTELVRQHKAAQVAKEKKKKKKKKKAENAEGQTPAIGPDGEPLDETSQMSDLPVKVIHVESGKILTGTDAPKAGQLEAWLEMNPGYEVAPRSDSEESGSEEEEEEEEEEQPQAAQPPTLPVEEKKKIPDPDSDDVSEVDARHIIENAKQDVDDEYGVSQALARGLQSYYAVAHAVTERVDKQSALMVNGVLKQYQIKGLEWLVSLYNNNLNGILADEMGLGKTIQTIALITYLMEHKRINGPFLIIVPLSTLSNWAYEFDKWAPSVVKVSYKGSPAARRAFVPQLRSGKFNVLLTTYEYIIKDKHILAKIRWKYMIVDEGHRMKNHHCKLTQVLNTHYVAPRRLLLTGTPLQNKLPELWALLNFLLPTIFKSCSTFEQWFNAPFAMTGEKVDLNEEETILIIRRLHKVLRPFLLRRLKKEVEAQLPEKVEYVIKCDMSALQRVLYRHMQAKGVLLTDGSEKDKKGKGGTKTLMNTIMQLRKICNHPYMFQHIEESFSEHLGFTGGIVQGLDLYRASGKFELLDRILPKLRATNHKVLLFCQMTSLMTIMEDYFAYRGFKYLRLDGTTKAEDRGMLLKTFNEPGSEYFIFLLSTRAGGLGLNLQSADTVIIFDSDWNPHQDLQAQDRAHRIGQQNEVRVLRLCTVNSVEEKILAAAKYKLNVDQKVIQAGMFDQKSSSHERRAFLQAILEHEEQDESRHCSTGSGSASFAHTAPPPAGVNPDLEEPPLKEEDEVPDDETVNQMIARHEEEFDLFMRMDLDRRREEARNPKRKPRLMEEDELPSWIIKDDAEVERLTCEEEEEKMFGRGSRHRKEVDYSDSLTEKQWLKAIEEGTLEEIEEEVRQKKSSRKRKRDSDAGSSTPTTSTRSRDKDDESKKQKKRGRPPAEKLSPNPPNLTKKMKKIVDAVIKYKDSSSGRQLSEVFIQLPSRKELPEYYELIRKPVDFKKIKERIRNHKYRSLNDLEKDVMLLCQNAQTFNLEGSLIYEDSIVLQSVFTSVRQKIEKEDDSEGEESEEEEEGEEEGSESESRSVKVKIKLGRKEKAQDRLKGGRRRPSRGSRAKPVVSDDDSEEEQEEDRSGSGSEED

T1 sequence (P51531 whole entry, species assumed): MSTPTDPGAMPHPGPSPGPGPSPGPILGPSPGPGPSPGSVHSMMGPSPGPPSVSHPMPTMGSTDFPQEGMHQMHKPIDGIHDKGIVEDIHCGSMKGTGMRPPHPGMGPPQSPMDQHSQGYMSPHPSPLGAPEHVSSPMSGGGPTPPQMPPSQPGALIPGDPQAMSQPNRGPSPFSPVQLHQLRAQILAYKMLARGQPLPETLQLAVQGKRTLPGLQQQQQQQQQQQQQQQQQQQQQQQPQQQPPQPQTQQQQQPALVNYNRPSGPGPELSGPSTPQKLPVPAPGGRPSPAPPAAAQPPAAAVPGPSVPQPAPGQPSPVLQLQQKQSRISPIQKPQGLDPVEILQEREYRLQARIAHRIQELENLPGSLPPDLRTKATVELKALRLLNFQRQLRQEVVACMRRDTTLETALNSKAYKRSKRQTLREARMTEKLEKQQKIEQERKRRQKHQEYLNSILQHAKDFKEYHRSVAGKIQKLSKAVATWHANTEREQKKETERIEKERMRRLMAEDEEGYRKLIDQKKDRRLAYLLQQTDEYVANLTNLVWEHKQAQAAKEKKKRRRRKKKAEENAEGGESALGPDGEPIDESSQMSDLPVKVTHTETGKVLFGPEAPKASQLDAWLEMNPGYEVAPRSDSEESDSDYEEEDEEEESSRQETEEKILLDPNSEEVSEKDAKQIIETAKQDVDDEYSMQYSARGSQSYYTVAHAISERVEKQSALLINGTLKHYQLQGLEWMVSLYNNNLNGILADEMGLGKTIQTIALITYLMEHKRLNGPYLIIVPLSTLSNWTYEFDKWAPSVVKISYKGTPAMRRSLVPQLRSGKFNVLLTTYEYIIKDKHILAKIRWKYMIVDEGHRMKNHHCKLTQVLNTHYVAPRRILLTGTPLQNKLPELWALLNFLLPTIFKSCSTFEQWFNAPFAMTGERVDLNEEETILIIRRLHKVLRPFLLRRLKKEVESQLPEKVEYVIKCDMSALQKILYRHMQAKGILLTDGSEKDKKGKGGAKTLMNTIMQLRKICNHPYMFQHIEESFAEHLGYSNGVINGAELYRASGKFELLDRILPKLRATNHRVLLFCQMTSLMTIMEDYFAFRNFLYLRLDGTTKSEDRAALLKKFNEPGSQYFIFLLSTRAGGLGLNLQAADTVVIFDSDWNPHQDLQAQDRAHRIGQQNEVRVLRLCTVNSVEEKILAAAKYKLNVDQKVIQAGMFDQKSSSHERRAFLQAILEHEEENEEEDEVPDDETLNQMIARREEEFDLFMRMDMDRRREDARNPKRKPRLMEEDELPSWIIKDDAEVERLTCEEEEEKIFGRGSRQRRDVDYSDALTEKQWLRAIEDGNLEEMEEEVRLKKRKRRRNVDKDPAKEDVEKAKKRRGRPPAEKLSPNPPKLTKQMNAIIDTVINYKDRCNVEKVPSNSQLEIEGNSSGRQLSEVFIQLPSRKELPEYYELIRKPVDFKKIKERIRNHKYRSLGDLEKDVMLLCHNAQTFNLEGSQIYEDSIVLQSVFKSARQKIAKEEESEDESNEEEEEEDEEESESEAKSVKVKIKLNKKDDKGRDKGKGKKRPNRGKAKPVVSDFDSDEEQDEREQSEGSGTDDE

DC50 [1] [nM] | Dmax [1] [%] | Fold Selectivity SMARCA4/2 [1] | DC50 [2] [nM] | Dmax [2] [%] | Compound
7.13 | 88.8 | 20 | 143 | 58.5 | CCN(C(=O)C1(c2ccccc2)CCN(c2cnnc(-c3ccccc3O)c2)CC1)C1CCN(C(=O)CN2CCN(c3ccc(C4CCC(=O)NC4=O)cc3)CC2)CC1 (racemic) [Example 185, rac-N-{1-[2-(4-{4-[(3R)-2,6-dioxopiperidin-3-yl]phenyl}piperazin-1-yl)acetyl]piperidin-4-yl}-N-ethyl-1-[6-(2-hydroxyphenyl)pyridazin-4-yl]-4-phenylpiperidine-4-carboxamide]
1.71 | 90.6 | 143 | 245 | 57.8 | O=C1CCC(c2c(F)cc(N3CCC(CN4CC[C@@H](NC(=O)C5(c6ccccc6)CCN(c6cnnc(-c7ccccc7O)c6)CC5)CC45CCC5)CC3)cc2F)C(=O)N1 (mixture of isomers) [Example 188, N-[(8RS&)-5-[(1-{4-[(3RS)-2,6-dioxopiperidin-3-yl]-3,5-difluorophenyl}piperidin-4-yl)methyl]-5-azaspiro[3.5]nonan-8-yl]-1-[6-(2-hydroxyphenyl)pyridazin-4-yl]-4-phenylpiperidine-4-carboxamide]
1.24 | 94.9 | 11 | 13.2 | 84.2 | O=C1CCC(c2c(F)cc(N3CCC(CN4CCC5(CC4)CN(C(=O)C4(c6ccccc6)CCN(c6cnnc(-c7ccccc7O)c6)CC4)C5)CC3)cc2F)C(=O)N1 (racemic) [Example 193, rac-(3R)-3-(2,6-difluoro-4-{4-[(2-{1-[6-(2-hydroxyphenyl)pyridazin-4-yl]-4-phenylpiperidine-4-carbonyl}-2,7-diazaspiro[3.5]nonan-7-yl)methyl]piperidin-1-yl}phenyl)piperidine-2,6-dione]
13.7 | 70 | 727 | – | 20.3 | COC1(C(=O)N(C)C2CCN(CCC3CCN(c4ccc(C5CCC(=O)NC5=O)cc4)CC3)CC2)CCN(c2cnnc(-c3ccccc3O)c2)CC1 (racemic) [Example 195, rac-N-(1-(2-(1-(4-(2,6-dioxopiperidin-3-yl)phenyl)piperidin-4-yl)ethyl)piperidin-4-yl)-1-(6-(2-hydroxyphenyl)pyridazin-4-yl)-4-methoxy-n-methylpiperidine-4-carboxamide]
6.84 | 83 | 1462 | – | 41.4 | CN(C(=O)C1(c2ccccc2)CCN(c2cnnc(-c3ccccc3O)c2)CC1)C1CCN([C@@H]2COC3(CCN(c4ccc([C@H]5CCC(=O)NC5=O)cc4)CC3)C2)CC1 (single isomer, unassigned) [Example 148]
7.34 | 84.9 | 1362 | – | 41 | CN(C(=O)C1(c2ccccc2)CCN(c2cnnc(-c3ccccc3O)c2)CC1)C1CCN([C@H]2COC3(CCN(c4ccc([C@H]5CCC(=O)NC5=O)cc4)CC3)C2)CC1 (single isomer, unassigned) [Example 149]
41.4 | 75.1 | 241.66 | – | 44.6 | O=C1CC[C@@H](c2ccc(N3CCC(CN4CC5(C4)CN(C(=O)C4(c6ccccc6)CCN(c6cnnc(-c7ccccc7O)c6)CC4)C5)CC3)cc2)C(=O)N1 [Example 8, (3S)-3-(4-{4-[(6-{1-[6-(2-hydroxyphenyl)pyridazin-4-yl]-4-phenylpiperidine-4-carbonyl}-2,6-diazaspiro[3.3]heptan-2-yl)methyl]piperidin-1-yl}phenyl)piperidine-2,6-dione]
19.9 | 75.2 | 336.59 | 6720 | 44.7 | O=C1CC[C@@H](c2ccc(N3CCC(CN4CCC5(C4)CN(C(=O)C4(c6ccccc6)CCN(c6cnnc(-c7ccccc7O)c6)CC4)C5)CC3)cc2)C(=O)N1 [Example 9, (3S)-3-(4-{4-[(2-{1-[6-(2-hydroxyphenyl)pyridazin-4-yl]-4-phenylpiperidine-4-carbonyl}-2,6-diazaspiro[3.4]octan-6-yl)methyl]piperidin-1-yl}phenyl)piperidine-2,6-dione]
80.1 | 59.3 | 124.82 | – | 25.6 | O=C1CC[C@@H](c2ccc(N3CCC(CN4CCCC(CNC(=O)C5(c6ccccc6)CCN(c6cnnc(-c7ccccc7O)c6)CC5)C4)CC3)cc2)C(=O)N1 (stereo partly drawn) [Example 10, N-({1-[(1-{4-[(3S)-2,6-dioxopiperidin-3-yl]phenyl}piperidin-4-yl)methyl]piperidin-3-yl}methyl)-1-[6-(2-hydroxyphenyl)pyridazin-4-yl]-4-phenylpiperidine-4-carboxamide]
14.8 | 79.9 | 340.31 | 5030 | 49.3 | O=C1CC[C@H](c2ccc(N3CCC(CN4CC5(C4)CN(C(=O)C4(c6ccccc6)CCN(c6cnnc(-c7ccccc7O)c6)CC4)C5)CC3)cc2)C(=O)N1 [Example 15, (3R)-3-(4-{4-[(6-{1-[6-(2-hydroxyphenyl)pyridazin-4-yl]-4-phenylpiperidine-4-carbonyl}-2,6-diazaspiro[3.3]heptan-2-yl)methyl]piperidin-1-yl}phenyl)piperidine-2,6-dione]
7.48 | 82.6 | 671.32 | 5020 | 56.1 | O=C1CC[C@H](c2ccc(N3CCC(CN4CC5(CCN(C(=O)C6(c7ccccc7)CCN(c7cnnc(-c8ccccc8O)c7)CC6)C5)C4)CC3)cc2)C(=O)N1 [Example 16, (3R)-3-(4-{4-[(6-{1-[6-(2-hydroxyphenyl)pyridazin-4-yl]-4-phenylpiperidine-4-carbonyl}-2,6-diazaspiro[3.4]octan-2-yl)methyl]piperidin-1-yl}phenyl)piperidine-2,6-dione]
13.9 | 78 | 314.31 | 4370 | 54.2 | O=C1CC[C@H](c2ccc(N3CCC(CN4CCC5(C4)CN(C(=O)C4(c6ccccc6)CCN(c6cnnc(-c7ccccc7O)c6)CC4)C5)CC3)cc2)C(=O)N1 [Example 17, (3R)-3-(4-{4-[(2-{1-[6-(2-hydroxyphenyl)pyridazin-4-yl]-4-phenylpiperidine-4-carbonyl}-2,6-diazaspiro[3.4]octan-6-yl)methyl]piperidin-1-yl}phenyl)piperidine-2,6-dione]
78.5 | 55.9 | 127.44 | – | 39.1 | CC1(C(=O)N2CC3(CN(CC4CCN(c5ccc([C@H]6CCC(=O)NC6=O)cc5)CC4)C3)C2)CCN(c2cnnc(-c3ccccc3O)c2)CC1 [Example 23, (3R)-3-(4-{4-[(6-{1-[6-(2-hydroxyphenyl)pyridazin-4-yl]-4-methylpiperidine-4-carbonyl}-2,6-diazaspiro[3.3]heptan-2-yl)methyl]piperidin-1-yl}phenyl)piperidine-2,6-dione]
62.7 | 56.5 | 159.52 | – | 31.7 | O=C1CC[C@H](c2ccc(N3CCC(CN4CC5(C4)CN(C(=O)C4(C6CC6)CCN(c6cnnc(-c7ccccc7O)c6)CC4)C5)CC3)cc2)C(=O)N1 [Example 24, (3R)-3-(4-{4-[(6-{4-cyclopropyl-1-[6-(2-hydroxyphenyl)pyridazin-4-yl]piperidine-4-carbonyl}-2,6-diazaspiro[3.3]heptan-2-yl)methyl]piperidin-1-yl}phenyl)piperidine-2,6-dione]
80.7 | 61.5 | 123.86 | – | 29.4 | O=C1CC[C@H](c2ccc(N3CCC(CN4CC(F)C5(C4)CN(C(=O)C4(c6ccccc6)CCN(c6cnnc(-c7ccccc7O)c6)CC4)C5)CC3)cc2)C(=O)N1 (stereo partly drawn) [Example 25, (3R)-3-(4-{4-[(8-fluoro-2-{1-[6-(2-hydroxyphenyl)pyridazin-4-yl]-4-phenylpiperidine-4-carbonyl}-2,6-diazaspiro[3.4]octan-6-yl)methyl]piperidin-1-yl}phenyl)piperidine-2,6-dione]
80.5 | 57 | 124.30 | – | 22.6 | O=C1CC[C@@H](c2ccc(OCC3CCN(CC4CCN(C(=O)C5(c6ccccc6)CCN(c6cnnc(-c7ccccc7O)c6)CC5)CC4)CC3)cc2)C(=O)N1 [Example 35, (3S)-3-[4-({1-[(1-{1-[6-(2-hydroxyphenyl)pyridazin-4-yl]-4-phenylpiperidine-4-carbonyl}piperidin-4-yl)methyl]piperidin-4-yl}methoxy)phenyl]piperidine-2,6-dione]
32.3 | 63.9 | 309.98 | – | 27.4 | O=C1CC[C@H](c2ccc(OCC3CCN(CC4CCN(C(=O)C5(c6ccccc6)CCN(c6cnnc(-c7ccccc7O)c6)CC5)CC4)CC3)cc2)C(=O)N1 [Example 36, (3R)-3-[4-({1-[(1-{1-[6-(2-hydroxyphenyl)pyridazin-4-yl]-4-phenylpiperidine-4-carbonyl}piperidin-4-yl)methyl]piperidin-4-yl}methoxy)phenyl]piperidine-2,6-dione]
– | 47.5 | 1 | – | 33.1 | O=C1CC[C@H](c2ccc(N3CCC(CN4CCCC4C4CCCN(C(=O)C5(c6ccccc6)CCN(c6cnnc(-c7ccccc7O)c6)CC5)C4)CC3)cc2)C(=O)N1 (stereo partly drawn) [Example 37, (3R)-3-[4-(4-{[2-(1-{1-[6-(2-hydroxyphenyl)pyridazin-4-yl]-4-phenylpiperidine-4-carbonyl}piperidin-3-yl)pyrrolidin-1-yl]methyl}piperidin-1-yl)phenyl]piperidine-2,6-dione]
